pIC50: −log10 of the molar value.
Tests used:
[1] = biological target: Cytochrome P450 2D6 (Homo sapiens, UniProt P10635); assay: Inhibition of human liver microsome CYP2D6 in assessed as [14C]formaldehyde formation; assay type: ADME, microsomes
[2] = biological target: Cytochrome P450 3A4 (Homo sapiens, UniProt P08684); assay: Inhibition of human liver microsome CYP3A4 in assessed as [14C]formaldehyde formation; assay type: ADME, microsomes
Sequence of Cytochrome P450 3A4 (P08684 whole entry): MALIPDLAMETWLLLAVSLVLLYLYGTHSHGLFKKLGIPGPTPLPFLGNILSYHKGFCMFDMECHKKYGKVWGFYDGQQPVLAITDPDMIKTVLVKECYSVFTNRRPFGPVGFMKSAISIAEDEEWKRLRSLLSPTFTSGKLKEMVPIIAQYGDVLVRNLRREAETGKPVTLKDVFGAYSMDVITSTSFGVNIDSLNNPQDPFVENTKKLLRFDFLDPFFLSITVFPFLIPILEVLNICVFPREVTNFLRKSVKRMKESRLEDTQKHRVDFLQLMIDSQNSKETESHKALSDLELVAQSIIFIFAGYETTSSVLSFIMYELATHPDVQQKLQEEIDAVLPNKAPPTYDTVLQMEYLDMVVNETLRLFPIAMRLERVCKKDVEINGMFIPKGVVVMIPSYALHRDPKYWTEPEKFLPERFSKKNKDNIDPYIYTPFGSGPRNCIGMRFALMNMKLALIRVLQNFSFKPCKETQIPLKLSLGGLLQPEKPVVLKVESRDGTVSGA

Sequence of Cytochrome P450 2D6 (P10635 whole entry): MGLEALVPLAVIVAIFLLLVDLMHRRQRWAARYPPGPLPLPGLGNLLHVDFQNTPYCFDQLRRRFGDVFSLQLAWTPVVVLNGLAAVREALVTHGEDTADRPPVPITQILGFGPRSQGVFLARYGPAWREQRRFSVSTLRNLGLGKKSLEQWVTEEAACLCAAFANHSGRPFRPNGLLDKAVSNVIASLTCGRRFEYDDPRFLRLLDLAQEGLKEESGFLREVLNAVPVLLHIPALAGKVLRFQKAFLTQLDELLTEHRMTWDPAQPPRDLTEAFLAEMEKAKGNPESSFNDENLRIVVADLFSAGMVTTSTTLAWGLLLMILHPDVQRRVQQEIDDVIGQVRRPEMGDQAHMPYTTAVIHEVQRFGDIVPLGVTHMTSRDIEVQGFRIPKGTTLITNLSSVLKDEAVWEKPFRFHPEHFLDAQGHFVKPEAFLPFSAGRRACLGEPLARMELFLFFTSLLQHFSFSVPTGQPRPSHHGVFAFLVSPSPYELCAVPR

| SMILES | pIC50 [1] | pIC50 [2] |
| --- | --- | --- |
| O[C@H]1OC[C@H](Cc2ccc3c(c2)OCO3)[C@H]1Cc1ccc2c(c1)OCO2 | 4.45 | 5.04 |
| COc1cc(C[C@@H](CO)[C@H](CO)Cc2ccc3c(c2)OCO3)cc(OC)c1OC | < 4.00 | 6.10 |
| COc1cc(C[C@H]2C(=O)OC[C@@H]2Cc2ccc3c(c2)OCO3)cc(OC)c1OC | 4.02 | 6.00 |
| COc1cc(C[C@H]2COC(=O)[C@@H]2Cc2cc(OC)c(OC)c(OC)c2)cc(OC)c1OC | < 4.00 | 4.83 |
| COc1cc(C[C@H]2C(O)OC[C@@H]2Cc2ccc3c(c2)OCO3)cc(OC)c1OC (stereo not given in full) | < 4.00 | 6.08 |
| COc1cc(C[C@H]2COC(O)[C@@H]2Cc2cc(OC)c(OC)c(OC)c2)cc(OC)c1OC (stereo not given in full) | < 4.00 | 4.82 |
| COc1cc(OC)c(OC)cc1CC(C)=O | < 4.00 | 4.54 |
| COc1cc(C[C@H]2COC(=O)[C@@H]2Cc2cc(OC)c3c(c2)OCO3)cc(OC)c1O | < 4.00 | – |
| COc1cc(C[C@@H]2[C@@H](Cc3cc(OC)c4c(c3)OCO4)CO[C@@H]2O)cc(OC)c1OC | < 4.00 | 6.08 |
| CC1=C[C@@H](O)[C@@]23O[C@]2(C)C[C@@H]2OC(=O)C(C)=C2C[C@@H]13 | < 4.00 | 4.01 |
| CC1=CC(=O)C2=C(C)C[C@@H]3OC(=O)C(C)=C3C[C@@H]12 | < 4.00 | 5.06 |
| CO[C@@H]1OC[C@H](Cc2ccc3c(c2)OCO3)[C@H]1Cc1ccc2c(c1)OCO2 | < 4.00 | 5.11 |
| OC[C@H](Cc1ccc2c(c1)OCO2)[C@H](CO)Cc1ccc2c(c1)OCO2 [DIHYDROCUBEBIN] | 4.76 | 5.02 |
| CCOc1cc(C[C@H]2COC(O)[C@@H]2Cc2cc(OC)c(OC)c(OC)c2)cc2c1OCO2 (stereo not given in full) [ETHOXYCLUSIN] | 4.06 | 6.36 |
| O=C1OC[C@H](Cc2ccc3c(c2)OCO3)[C@H]1Cc1ccc2c(c1)OCO2 [HINOKININ] | 4.58 | 5.10 |
| COc1cc(OC)c([C@@H]2[C@H](C)[C@@H](C)[C@H]2c2cc(OC)c(OC)cc2OC)cc1OC [MAGNOSALIN] | < 4.00 | 4.07 |
| COc1cc([C@H]2OC[C@@H]3C(c4cc(OC)c(O)c(OC)c4)OC[C@H]23)ccc1O (stereo not given in full) [MEDIORESINOL] | < 4.00 | 4.86 |
| C/C=C/c1cc(OC)c(OC)cc1OC [TRANS-ASARONE] | < 4.00 | 4.03 |

From ChEMBL document CHEMBL1158685, “Potent CYP3A4 inhibitory constituents of Piper cubeba” (J Nat Prod, 2005)
